According to US8507656B2, “Stabilized angiopoietin-2 antibodies and uses thereof” (MedImmune Limited, priority 2008, dated 2013):

How the values were obtained:
Assay type in all cases: in vivo
MCF7 xenograft tumors = experiment: MCF7 breast cancer xenograft model; conditions: 3.19.3 10 mg/kg 2×wk i.p., AZD6495 30 mg/kg bid p.o. 18 d, combination of both
Protocol: The anti-tumor activity of the anti-Angiopoietin-2 monoclonal antibody 3.19.3 in combination with the small molecule CSF1R tyrosine kinase inhibitor AZD6495 (4-[(2,4-difluorophenyl)amino]-7-ethoxy-6-(4-methylpiperazin-1-yl)quinoline-3-carboxamide) was evaluated in a xenograft model of human breast carcinoma using the MCF7 cell line (FIG. 4a).
Materials and Methods: Breast carcinoma MCF7 cells were cultured in flasks as routine until the cells reach sub-confluence. Immunodeficient 7-10 week old male NCr-nude mice were subcutaneously implanted with 8×10^6 MCF7 cells suspended 1:1 in Matrigel in the right flank. […]
The mice were then randomized into cohorts containing 15 mice once the tumors reached approximately 100 mm^3. […] The body weights of each animal, and the dimensions of each tumor were measured twice per week. The volume of the tumor was calculated as: Volume=Length×(Width)^2×0.5 cm^3, or by bilateral Vernier caliper measurement and, taking length to be the longest diameter across the tumor and width the corresponding perpendicular, calculated using the formula (π/6)×(length×width)×√(length×width). Growth inhibition from the start of treatment was assessed by comparison of the differences in tumor volume between control and treated groups.

LoVo xenograft tumors = conditions: 3.19.3 10 mg/kg 2×wk i.p., 5FU 100 mg/kg/week i.p., combination of both
Protocol: (§1) The anti-tumor activity of 3.19.3 was evaluated in combination with 5-Fluoruracil (5FU) in the LoVo xenograft model of colorectal cancer. LoVo cells were cultured in flasks as routine until the cells reached sub-confluence. Cell suspensions containing approximately 3×10E6 cells were injected subcutaneously into the flank of female Swiss nude mice. When the tumor volume reached 200 mm^3, the mice were randomized in treatment groups of 8-10 mice and the treatments were initiated. 3.19.3 (10 mg/kg) in saline was injected intraperitoneally, twice per week for 2 weeks and 5-Flurouracil (100 mg/kg) was administered by intraperitoneal administration following a weekly schedule. The dimensions of each tumor and body weights were measured at least twice per week. The volume of the tumor was calculated as: Volume=Length×(Width)×0.5 (cm^3).

H460 xenograft tumors = conditions: 3.19.3 10 mg/kg 2×wk i.p., Oxaliplatin 5 mg/kg/week i.p., combination of both
Protocol: as §1, with “Oxaliplatin” for “5-Fluoruracil (5FU)”, “H460” for “LoVo”, “lung” for “colorectal”, “weeks. Oxaliplatin (5” for “weeks and 5-Flurouracil (100”

## 3.19.3: fully human anti-Ang-2 monoclonal antibody, wild type control; light chain SEQ ID No. 1, heavy chain SEQ ID No. 2 [Antibody 3.19.3]
MCF7 xenograft tumors
  % tumor growth inhibition: 62%
LoVo xenograft tumors
  % tumor growth inhibition: 59%
H460 xenograft tumors
  % tumor growth inhibition: 67%
